# Laboratory results from US9550772B2, “Azaindole derivatives as multi kinase inhibitors” (ORIBASE PHARMA, priority 2012, dated 2017).
# Where two headings read alike, the source gives them in different places.
# Columns and labels:
# [1] = molecular target: T1, SRC (Homo sapiens, UniProt P12931); experiment: In vitro kinase assay (Z'-LYTE, Invitrogen); assay type: biochemical; details: compound at 100 nM, ATP Km apparent, read-out: % of inhibition of the kinase compared to the control
# T1 construct: purchased Invitrogen
# Description: (§1) The inhibitory activity of the compounds on 7 kinases (BRAF, EGFR (ErbB1), EGFR (ErbB1) T790M L858R, FGFR2, KDR (VEGFR2), PDGFRA (PDGFR alpha), SRC) was evaluated by Invitrogen using the Z′-LYTE® technology. Briefly, the Z′-LYTE® biochemical assay employs a fluorescence-based, coupled-enzyme format and is based on the differential sensitivity of phosphorylated and non-phosphorylated peptides to proteolytic cleavage. The peptide substrate is labeled with two fluorophores—one at each end—that make up a FRET pair. A ratiometric method, which calculates the ratio (the Emission Ratio) of donor emission to acceptor emission after excitation of the donor fluorophore at 400 nm, is used to quantitate reaction progress.
# (§2) The compounds are screened in 1% DMSO (final) in the well. For 10 point titrations, 3-fold serial dilutions are conducted from the starting concentration. All Peptide/Kinase Mixtures are diluted to a 2× working concentration in the appropriate Kinase Buffer. All ATP Solutions are diluted to a 4× working concentration in Kinase Buffer (50 mM HEPES pH 7.5, 0.01% BRIJ-35, 10 mM MgCl2, 1 mM EGTA). ATP Km apparent is previously determined using a Z′-LYTE® assay.
# (§3) Each compound was incubated at a concentration of 100 nM and the tables 21 to 27 summarize the results obtained showing the inhibitory power of a compound.
# [2] = molecular target: T2, PDGFRA (PDGFR alpha) (Homo sapiens, UniProt P16234); experiment: In vitro kinase assay (Z'-LYTE, Invitrogen); assay type: biochemical; details: compound at 100 nM, ATP Km apparent, read-out: % of inhibition of the kinase compared to the control
# T2 construct: purchased Invitrogen
# Description: as §1, §2, §3
# [3] = molecular target: T3, FGFR2 (Homo sapiens, UniProt P21802); experiment: In vitro kinase assay (Z'-LYTE, Invitrogen); assay type: biochemical; details: compound at 100 nM, ATP Km apparent, read-out: % of inhibition of the kinase compared to the control
# T3 construct: purchased Invitrogen
# Description: as §1, §2, §3
# [4] = molecular target: T4, KDR (VEGFR2) (Homo sapiens, UniProt P35968); experiment: In vitro kinase assay (Z'-LYTE, Invitrogen); assay type: biochemical; details: compound at 100 nM, ATP Km apparent, read-out: % of inhibition of the kinase compared to the control
# T4 construct: purchased Invitrogen
# Description: as §1, §2, §3
# [5] = molecular target: T5, BRAF (Homo sapiens, UniProt P15056); experiment: In vitro kinase assay (Z'-LYTE, Invitrogen); assay type: biochemical; details: compound at 100 nM, ATP Km apparent, read-out: % of inhibition of the kinase compared to the control
# T5 construct: purchased Invitrogen
# Description: as §1, §2, §3
# [6] = molecular target: T6, EGFR (ErbB1) (Homo sapiens, UniProt P00533); experiment: In vitro kinase assay (Z'-LYTE, Invitrogen); assay type: biochemical; details: compound at 100 nM, ATP Km apparent, read-out: % of inhibition of the kinase compared to the control
# T6 construct: purchased Invitrogen
# Description: as §1, §2, §3
# [7] = system: HUVEC cells; experiment: In vitro cell proliferation assay (MTT); assay type: cell-based; details: Homo sapiens, 72 hr, read-out: EC50, anti-proliferative activity
# Description: (§4) Cancer cell lines (5×10^3 cells per well) or HUVEC (1×10^4 cells per well) or HRMEC (1×10^4 cells per well) were distributed in 96-well plates and incubating in duplicate with escalating concentrations (10 nM to 3 μM) of compounds for 72 hr. Cell proliferation was measured using MTT (3[4,5-dimethylthiazol-2-yl]-2,5-diphenyltetrazolium bromide). The EC50 values were calculated from sigmoidal dose-response curves utilizing Prism 5.0 from Graph-Pad Software (GraphPad Software, La Jolla, Calif., USA), with values normalized to those of DMSO-treated control wells (0%) and 1% SDS control wells (100%).
# [8] = system: A549 cell line; experiment: In vitro cell proliferation assay (MTT); assay type: cell-based; details: Homo sapiens, A549, 72 h, read-out: EC50, anti-proliferative activity
# Description: as §4
# [9] = system: MDA-MB-231 cell line; experiment: In vitro cell proliferation assay (MTT); assay type: cell-based; details: Homo sapiens, MDA-MB-231, 72 hr, read-out: EC50, anti-proliferative activity
# Description: as §4
# [10] = system: HeLa cell line; experiment: In vitro cell proliferation assay (MTT); assay type: cell-based; details: Homo sapiens, 72 hr, read-out: EC50, anti-proliferative activity
# Description: as §4
# [11] = system: HepG2 cell line; experiment: In vitro cell proliferation assay (MTT); assay type: cell-based; details: Homo sapiens, HepG2, 72 hr, read-out: EC50, anti-proliferative activity
# Description: as §4
# T5 sequence (P15056 whole entry): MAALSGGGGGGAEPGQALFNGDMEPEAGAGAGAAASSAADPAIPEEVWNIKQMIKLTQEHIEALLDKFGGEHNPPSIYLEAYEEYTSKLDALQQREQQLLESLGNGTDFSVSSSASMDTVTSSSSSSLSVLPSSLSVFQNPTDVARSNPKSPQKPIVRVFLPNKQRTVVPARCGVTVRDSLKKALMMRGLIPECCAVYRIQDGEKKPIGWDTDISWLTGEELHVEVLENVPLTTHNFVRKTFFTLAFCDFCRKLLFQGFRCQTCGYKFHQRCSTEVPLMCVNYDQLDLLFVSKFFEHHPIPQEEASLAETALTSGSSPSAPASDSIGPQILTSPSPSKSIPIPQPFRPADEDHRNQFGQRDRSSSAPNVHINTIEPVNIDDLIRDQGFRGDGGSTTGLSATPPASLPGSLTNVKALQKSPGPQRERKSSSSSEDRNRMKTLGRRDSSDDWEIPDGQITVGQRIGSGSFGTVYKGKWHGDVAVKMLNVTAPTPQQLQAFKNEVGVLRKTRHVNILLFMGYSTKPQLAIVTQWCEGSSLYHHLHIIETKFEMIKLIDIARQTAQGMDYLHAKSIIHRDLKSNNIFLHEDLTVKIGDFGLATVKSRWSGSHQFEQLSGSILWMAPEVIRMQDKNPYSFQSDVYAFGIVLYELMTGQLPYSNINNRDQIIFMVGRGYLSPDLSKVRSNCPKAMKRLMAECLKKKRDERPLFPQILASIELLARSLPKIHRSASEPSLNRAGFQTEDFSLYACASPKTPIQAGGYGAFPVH
# T3 sequence (P21802 22-821): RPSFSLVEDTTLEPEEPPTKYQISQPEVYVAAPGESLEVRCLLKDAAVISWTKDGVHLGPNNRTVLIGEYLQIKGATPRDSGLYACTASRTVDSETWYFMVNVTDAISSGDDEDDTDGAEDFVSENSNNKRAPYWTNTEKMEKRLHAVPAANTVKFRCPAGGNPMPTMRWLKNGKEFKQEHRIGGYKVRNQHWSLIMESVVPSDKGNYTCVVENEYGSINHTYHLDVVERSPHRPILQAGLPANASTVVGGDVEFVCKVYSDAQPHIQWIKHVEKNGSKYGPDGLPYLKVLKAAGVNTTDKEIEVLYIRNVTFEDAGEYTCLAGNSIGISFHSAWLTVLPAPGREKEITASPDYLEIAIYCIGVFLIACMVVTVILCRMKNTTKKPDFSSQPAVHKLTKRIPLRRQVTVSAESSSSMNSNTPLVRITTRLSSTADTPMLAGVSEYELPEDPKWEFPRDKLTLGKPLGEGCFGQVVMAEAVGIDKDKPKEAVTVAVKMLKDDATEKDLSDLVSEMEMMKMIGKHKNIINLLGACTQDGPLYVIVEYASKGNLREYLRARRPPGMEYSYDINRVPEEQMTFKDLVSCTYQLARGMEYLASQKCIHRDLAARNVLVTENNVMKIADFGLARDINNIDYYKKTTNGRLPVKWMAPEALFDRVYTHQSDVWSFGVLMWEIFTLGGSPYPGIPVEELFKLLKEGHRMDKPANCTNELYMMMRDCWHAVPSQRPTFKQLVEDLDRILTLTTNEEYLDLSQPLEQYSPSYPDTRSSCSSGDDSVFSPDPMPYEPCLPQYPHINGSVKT
# T6 sequence (P00533 25-1210): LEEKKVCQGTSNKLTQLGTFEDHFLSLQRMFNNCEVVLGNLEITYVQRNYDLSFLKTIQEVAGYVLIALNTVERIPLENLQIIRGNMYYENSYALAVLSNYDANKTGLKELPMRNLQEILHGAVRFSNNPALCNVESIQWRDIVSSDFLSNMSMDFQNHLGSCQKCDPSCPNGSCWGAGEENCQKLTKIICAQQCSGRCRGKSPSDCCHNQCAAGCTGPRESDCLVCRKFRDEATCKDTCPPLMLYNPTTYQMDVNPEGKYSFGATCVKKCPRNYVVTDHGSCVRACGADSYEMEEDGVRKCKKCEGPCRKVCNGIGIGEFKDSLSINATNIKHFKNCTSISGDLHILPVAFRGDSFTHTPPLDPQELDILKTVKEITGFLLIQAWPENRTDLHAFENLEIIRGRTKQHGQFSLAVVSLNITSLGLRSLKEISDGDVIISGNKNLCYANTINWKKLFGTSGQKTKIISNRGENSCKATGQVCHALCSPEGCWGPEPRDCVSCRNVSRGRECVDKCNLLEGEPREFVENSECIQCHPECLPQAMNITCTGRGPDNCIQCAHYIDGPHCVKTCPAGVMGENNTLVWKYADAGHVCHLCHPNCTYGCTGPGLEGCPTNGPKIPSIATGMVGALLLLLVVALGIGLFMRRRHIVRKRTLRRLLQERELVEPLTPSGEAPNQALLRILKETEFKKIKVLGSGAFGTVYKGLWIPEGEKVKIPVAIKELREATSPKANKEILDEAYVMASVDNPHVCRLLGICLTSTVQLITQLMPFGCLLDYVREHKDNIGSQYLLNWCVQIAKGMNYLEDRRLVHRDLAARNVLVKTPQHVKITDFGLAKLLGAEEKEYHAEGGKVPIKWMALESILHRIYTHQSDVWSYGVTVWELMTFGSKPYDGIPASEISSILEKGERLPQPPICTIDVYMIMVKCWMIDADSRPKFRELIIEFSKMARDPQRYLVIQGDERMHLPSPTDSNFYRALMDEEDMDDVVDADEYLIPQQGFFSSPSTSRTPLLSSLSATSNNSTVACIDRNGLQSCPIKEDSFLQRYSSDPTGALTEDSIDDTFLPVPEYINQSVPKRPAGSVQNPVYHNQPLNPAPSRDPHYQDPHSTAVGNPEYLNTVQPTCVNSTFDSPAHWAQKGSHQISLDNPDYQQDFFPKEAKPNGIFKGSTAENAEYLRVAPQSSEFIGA
# T4 sequence (P35968 20-1356): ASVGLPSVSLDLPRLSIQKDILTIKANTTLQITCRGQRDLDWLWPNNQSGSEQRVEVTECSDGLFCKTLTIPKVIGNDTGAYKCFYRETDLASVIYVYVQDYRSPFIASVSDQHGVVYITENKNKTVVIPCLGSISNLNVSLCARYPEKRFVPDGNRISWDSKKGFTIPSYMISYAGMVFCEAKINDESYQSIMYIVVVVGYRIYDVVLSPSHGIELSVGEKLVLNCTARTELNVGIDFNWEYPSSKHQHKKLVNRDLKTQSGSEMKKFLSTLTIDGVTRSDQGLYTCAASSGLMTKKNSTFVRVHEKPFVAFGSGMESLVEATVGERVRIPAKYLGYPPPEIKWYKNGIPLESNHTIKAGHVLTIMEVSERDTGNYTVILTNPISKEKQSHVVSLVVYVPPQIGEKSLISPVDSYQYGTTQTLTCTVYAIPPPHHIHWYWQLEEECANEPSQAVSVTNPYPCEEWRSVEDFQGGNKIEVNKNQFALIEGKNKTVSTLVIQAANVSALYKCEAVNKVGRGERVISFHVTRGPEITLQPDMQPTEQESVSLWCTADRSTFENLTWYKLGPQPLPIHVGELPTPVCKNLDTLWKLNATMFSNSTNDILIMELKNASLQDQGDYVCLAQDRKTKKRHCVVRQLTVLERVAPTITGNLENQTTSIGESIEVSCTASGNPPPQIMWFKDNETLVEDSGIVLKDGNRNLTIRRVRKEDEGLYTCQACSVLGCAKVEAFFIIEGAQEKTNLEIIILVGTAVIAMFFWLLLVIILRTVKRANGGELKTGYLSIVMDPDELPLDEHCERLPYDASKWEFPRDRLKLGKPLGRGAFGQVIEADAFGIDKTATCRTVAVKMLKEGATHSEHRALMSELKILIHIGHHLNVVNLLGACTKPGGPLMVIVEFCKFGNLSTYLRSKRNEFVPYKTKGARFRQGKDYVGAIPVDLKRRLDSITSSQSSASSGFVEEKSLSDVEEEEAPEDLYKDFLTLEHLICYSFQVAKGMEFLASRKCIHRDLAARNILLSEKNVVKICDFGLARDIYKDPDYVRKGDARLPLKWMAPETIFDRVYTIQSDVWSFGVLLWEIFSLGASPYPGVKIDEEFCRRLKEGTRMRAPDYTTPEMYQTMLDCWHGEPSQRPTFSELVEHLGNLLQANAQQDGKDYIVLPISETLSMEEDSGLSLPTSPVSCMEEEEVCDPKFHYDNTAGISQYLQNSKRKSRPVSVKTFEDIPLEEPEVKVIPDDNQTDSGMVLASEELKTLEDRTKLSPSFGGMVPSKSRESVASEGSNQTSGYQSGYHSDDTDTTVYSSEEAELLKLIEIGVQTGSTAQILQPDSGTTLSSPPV
# T1 sequence (P12931 whole entry): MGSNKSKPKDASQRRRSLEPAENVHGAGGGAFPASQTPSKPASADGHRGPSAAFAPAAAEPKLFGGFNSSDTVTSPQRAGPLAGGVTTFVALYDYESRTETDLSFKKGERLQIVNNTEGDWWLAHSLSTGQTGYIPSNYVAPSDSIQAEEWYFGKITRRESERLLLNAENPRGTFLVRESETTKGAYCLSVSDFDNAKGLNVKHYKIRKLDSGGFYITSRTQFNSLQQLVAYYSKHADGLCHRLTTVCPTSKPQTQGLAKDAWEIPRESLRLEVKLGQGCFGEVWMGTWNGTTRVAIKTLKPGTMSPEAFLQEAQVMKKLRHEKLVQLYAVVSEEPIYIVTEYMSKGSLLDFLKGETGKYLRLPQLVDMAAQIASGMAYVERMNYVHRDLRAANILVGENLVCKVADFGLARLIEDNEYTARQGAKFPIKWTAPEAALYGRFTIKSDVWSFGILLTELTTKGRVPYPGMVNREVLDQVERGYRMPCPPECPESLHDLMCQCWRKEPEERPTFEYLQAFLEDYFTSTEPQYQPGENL
Compound,inhibition at 0.1 µM [1],inhibition at 0.1 µM [2],inhibition at 0.1 µM [3],inhibition at 0.1 µM [4],inhibition at 0.1 µM [5],inhibition at 0.1 µM [6],EC50 ([7]; EC50 ≧ 1 μM),EC50 ([8]; EC50 ≧ 1 μM),EC50 ([9]; 100 nM < EC50 < 1 μM),EC50 ([10]; EC50 ≧ 1 μM),EC50 ([11]; EC50 ≦ 100 nM),EC50 ([7]; EC50 ≦ 100 nM),EC50 ([8]; 100 nM < EC50 < 1 μM),EC50 ([9]; EC50 ≦ 100 nM),EC50 ([10]; EC50 ≦ 100 nM),EC50 ([11]; 100 nM < EC50 < 1 μM),EC50 ([10]; 100 nM < EC50 < 1 μM),EC50 ([11]; EC50 ≧ 1 μM),EC50 ([7]; 100 nM < EC50 < 1 μM),EC50 ([9]; EC50 ≧ 1 μM)
"CC(=O)c1cc2cc(CCc3cc(NC(=O)Nc4cccc(C(F)(F)F)c4)ccc3C)cnc2[nH]1 [OR0919, 1-{3-[2-(2-Acetyl-1H-pyrrolo[2,3-b]pyridin-5-yl)-ethyl]-4-methyl-phenyl}-3-(3-trifluoromethyl-phenyl)-urea]",< 50%,≥ 50%,< 50%,< 50%,< 50%,< 50%,≥ 1000 nM,≥ 1000 nM,100 to 1000 nM,≥ 1000 nM,≤ 100 nM,–,–,–,–,–,–,–,–,–
"COC(=O)c1cc2cc(CCc3cccc(NC(=O)c4ccc(CN5CCN(C)CC5)c(C(F)(F)F)c4)c3)cnc2[nH]1 [OR0921, 5-(2-{3-[4-(4-Methyl-piperazin-1-ylmethyl)-3-trifluoromethyl-benzoylamino]-phenyl}-ethyl)-1H-pyrrolo[2,3-b]pyridine-2-carboxylic acid methyl ester]",–,–,≥ 50%,≥ 50%,< 50%,≥ 50%,–,–,–,–,–,≤ 100 nM,100 to 1000 nM,≤ 100 nM,≤ 100 nM,100 to 1000 nM,–,–,–,–
"COC(=O)c1cc2cc(CCc3cc(NC(=O)c4ccc(CN5CCN(C)CC5)c(C(F)(F)F)c4)ccc3Cl)cnc2[nH]1 [OR1006, 5-(2-{2-Chloro-5-[4-(4-methyl-piperazin-1-ylmethyl)-3-trifluoromethyl-benzoylamino]-phenyl}ethyl)-1H-pyrrolo[2,3-b]pyridine-2-carboxylic acid methyl ester]",–,–,≥ 50%,≥ 50%,< 50%,≥ 50%,–,–,100 to 1000 nM,–,–,≤ 100 nM,100 to 1000 nM,–,–,–,100 to 1000 nM,≥ 1000 nM,–,–
"COC(=O)c1cc2cc(CCc3cc(NC(=O)c4ccc(CN5CCC(N(C)C)C5)c(C(F)(F)F)c4)ccc3Cl)cnc2[nH]1 (centres unmarked) [OR1007, 5-(2-{2-Chloro-5-[4-(3-dimethylamino-pyrrolidin-1-ylmethyl)-3-trifluoromethyl-benzoylamino]-phenyl}-ethyl)-1H-pyrrolo[2,3-b]pyridine-2-carboxylic acid methyl ester]",–,–,≥ 50%,≥ 50%,< 50%,≥ 50%,–,≥ 1000 nM,–,≥ 1000 nM,–,–,–,–,–,–,–,≥ 1000 nM,100 to 1000 nM,≥ 1000 nM
"COC(=O)c1cc2cc(CCc3cc(NC(=O)c4cncc(C(F)(F)F)c4)ccc3Cl)cnc2[nH]1 [OR1008, 5-(2-{2-Chloro-5-[(5-trifluoromethyl-pyridine-3-carbonyl)-amino]-phenyl}-ethyl)-1H-pyrrolo[2,3-b]pyridine-2-carboxylic acid methyl ester]",–,–,< 50%,≥ 50%,≥ 50%,< 50%,≥ 1000 nM,≥ 1000 nM,–,≥ 1000 nM,–,–,–,–,–,–,–,≥ 1000 nM,–,≥ 1000 nM
"CC(=O)c1cc2cc(CCc3cc(NC(=S)Nc4cccc(C(F)(F)F)c4)ccc3C)cnc2[nH]1 [OR1017, 1-{3-[2-(2-Acetyl-1H-pyrrolo[2,3-b]pyridin-5-yl)-ethyl]-4-methyl-phenyl}-3-(3-trifluoromethyl-phenyl)-thiourea]",–,–,< 50%,< 50%,< 50%,< 50%,≥ 1000 nM,≥ 1000 nM,–,≥ 1000 nM,–,–,–,–,–,100 to 1000 nM,–,–,–,≥ 1000 nM
"COC(=O)c1cc2cc(CCc3cccc(CNC(=O)c4ccc(CN5CCN(C)CC5)c(C(F)(F)F)c4)c3)cnc2[nH]1 [OR1018, 5-[2-(3-{[4-(4-Methyl-piperazin-1-ylmethyl)-3-trifluoromethyl-benzoylamino]-methyl}-phenyl)-ethyl]-1H-pyrrolo[2,3-b]pyridine-2-carboxylic acid methyl ester]",–,–,< 50%,≥ 50%,< 50%,< 50%,≥ 1000 nM,≥ 1000 nM,–,≥ 1000 nM,–,–,–,–,–,–,–,≥ 1000 nM,–,≥ 1000 nM
"COC(=O)c1cc2cc(NCCc3cccc(NC(=O)c4ccc(CN5CCN(C)CC5)c(C(F)(F)F)c4)c3)cnc2[nH]1 [OR1019, 5-(2-{3-[4-(4-Methyl-piperazin-1-ylmethyl)-3-trifluoromethyl-benzoylamino]-phenyl}-ethylamino)-1H-pyrrolo[2,3-b]pyridine-2-carboxylic acid methyl ester]",–,–,< 50%,≥ 50%,< 50%,≥ 50%,≥ 1000 nM,≥ 1000 nM,100 to 1000 nM,≥ 1000 nM,–,–,–,–,–,–,–,≥ 1000 nM,–,–
"COC(=O)c1cc2cc(CNCc3cccc(NC(=O)c4ccc(CN5CCN(C)CC5)c(C(F)(F)F)c4)c3)cnc2[nH]1 [OR1020, 5-({3-[4-(4-Methyl-piperazin-1-ylmethyl)-3-trifluoromethyl-benzoylamino]-benzylamino}-methyl)-1H-pyrrolo[2,3-b]pyridine-2-carboxylic acid methyl ester]",–,–,< 50%,≥ 50%,< 50%,< 50%,≥ 1000 nM,≥ 1000 nM,–,≥ 1000 nM,–,–,–,–,–,–,–,≥ 1000 nM,–,≥ 1000 nM
"COC(=O)c1cc2cc(CCc3ccc(C)c(NC(=O)c4ccc(CN5CCC(N(C)C)C5)c(C(F)(F)F)c4)c3)cnc2[nH]1 (centres unmarked) [OR1044, 5-(2-{5-[4-(3-Dimethylamino-pyrrolidin-1-ylmethyl)-3-trifluoromethyl-benzoylamino]-4-methyl-phenyl}-ethyl)-1H-pyrrolo[2,3-b]pyridine-2-carboxylic acid methyl ester]",–,–,≥ 50%,≥ 50%,< 50%,≥ 50%,–,≥ 1000 nM,–,–,–,–,–,–,–,–,100 to 1000 nM,≥ 1000 nM,100 to 1000 nM,≥ 1000 nM
